Results: US11311512B2, “Lymph directing prodrugs” (priority 2014, dated 2022)
Where “and” joins values, the source holds several entries; their conditions need not be identical. Equal entries are not always repeated. Where two headings read alike, the source gives them in different places.

Tests used:
[1] = Procedure: Lipid formulations containing the compound of interest were then administered to the animals, the lymph collected and drug concentrations in the lymph subsequently quantified.
Lipid-based formulations of the compounds of the invention or control compounds were prepared as previously described (Trevaskis, N. L. et al., Pharmaceutical Research, 2005, 22(11), 1863-1870). Briefly, approximately 2 mg of the compound (1 mg in the case of Compound 35 and Compound 1), 40 mg oleic acid and 25 mg Tween 80 were mixed in a glass vial until equilibrated (gentle heat (below 50° C.) may be applied for a short period).
[…] This was to eliminate the potential for the relatively high and variable levels of endogenous testosterone in male rats interfering with the quantification of exogenously dosed testosterone. Rats (240-320 g) were maintained on a standard diet and fasted overnight with free access to water prior to experiments. Anaesthetised rats were placed on a heated pad at 37° C. and cannulas were inserted into the duodenum (for formulation administration and rehydration), mesenteric lymph duct (for lymph collection) and carotid artery (for blood collection) as previously described (Edwards et al. Advanced Drug Delivery Reviews 2001, 50(1), 45-60). Post-surgery, rats were re-hydrated for 0.5 h via intraduodenal infusion of normal saline at 2.8 mL/h. The lipid formulations were infused into the duodenum at 2.8 mL/h for 2 h, after which the infusion was changed to 2.8 mL/h normal saline for the remainder of the experiment. Lymph was continuously collected for 6 to 8 h into pre-weighed Eppendorf tubes containing 10 μL of 1,000 IU/mL heparin. The collection tubes were changed hourly and lymph flow was measured gravimetrically. Aliquots of hourly lymph samples were stored at −80° C. prior to assay.
Drug concentration in lymph is expressed as total drug and includes free drug and drug associated with different glycerides. This is assayed by hydrolysis of lymph (to liberate drug from any re-esterified glycerides) prior to assessment of free drug.
FIG. 1 illustrates the cumulative lymphatic transport of total testosterone related derivatives (% of administered dose) versus time in anaesthetised mesenteric lymph duct cannulated female SD rats following intraduodenal infusion of formulations from 0 to 2 h. Each Formulation contained 2 mg of the exemplified compound or the control, testosterone undecanoate (TU), dispersed in 40 mg oleic acid, 25 mg Tween 80 and 5.6 ml PBS.

[2] = Pharmacokinetic study in rats, testosterone plasma concentrations after oral gavage; details: testosterone in plasma, oral gavage; for Tmax / AUC0-24 h / Cmax: conscious carotid artery cannulated SD female rats; for AUC0-24 h / Cmax: normalized to 2 mg/kg equivalent testosterone dose
Procedure: In order to assess the oral bioavailability of the compounds of the invention, pharmacokinetic studies were conducted in rats and dogs. […] The rats were then allowed to regain consciousness and fasted overnight prior to the commencement of experiments with free access to water. […] The oral formulation of Compound 2 contained 3 mg of the compound, 20 mg oleic acid and 12.5 mg Tween 80 dispersed in 1 mL PBS. Blood samples were collected from the carotid artery cannula from 5 min prior to administration up to 24 h post-dosing and centrifuged at 5000 rpm for 5 min to separate plasma. […] Plasma samples were stored at −80° C. prior to assay by HPLC-MS-MS. In this case samples were assayed for free drug (i.e. non-glyceride associated drug) and were not hydrolysed prior to assay (as was the case with the lymph samples).
FIG. 12 illustrates dose-normalized testosterone plasma concentrations following oral gavage of formulations to conscious, carotid artery cannulated female SD rats. Formulations contained 1 mg of TU, or 2 mg of compounds of the invention containing testosterone dispersed in 40 mg oleic acid, 25 mg Tween 80 and 2 ml PBS. Doses are normalized to a 2 mg/kg equivalent dose of testosterone. Data are shown as mean±SEM for all groups (n=4 or 3 for each group). The embedded figure is the plot of the dose-normalized plasma AUC0-24h (nmol×h/L) of testosterone in the form of a bar graph.

[3] = anaesthetised, mesenteric lymph-duct cannulated male SD rats, intraduodenal infusion 0-2 h, cumulative over 8 h
[4] = lymphatic transport of total MPA derivatives, male SD rats, intraduodenal infusion
[5] = male, Sprague-Dawley, rat, in vivo
[6] = anaesthetised, mesenteric lymph-duct cannulated male SD rats, intraduodenal infusion, MET, ATV, ASP, SER or CEL derivatives

## CCCCCCCCCCCCCCCC(=O)OCC(COC(=O)CCCCCCCCCCCCCCC)OC(=O)CCCCCCCOC(=O)CC/C(C)=C/Cc1c(O)c2c(c(C)c1OC)COC2=O [Compound 33]
[1]; [3]
  Transport of total MPA derivatives in lymph (% of dose): 10.5 ± 0.7 % of dose
[1]; [4]
  Fold increase (compared with MPA dosed group): 62.8 fold

## CCCCCCCCCCCCCCCC(=O)OCC(COC(=O)CCCCCCCCCCCCCCC)OC(=O)CC(C)CCCCCCCCCCCCOC(=O)CCC(C)=CCc1c(O)c2c(c(C)c1OC)COC2=O (mixture of isomers) [Compound 39]
[1]; [3]
  Transport of total MPA derivatives in lymph (% of dose): 28.4 % of dose and 28.4 ± 3.2 % of dose
[1]; [4]
  Fold increase (compared with MPA dosed group): 167.0 fold

## CCCCCCCCCCCCCCCC(=O)OCC(COC(=O)CCCCCCCCCCCCCCC)OC(=O)CCCCC(=O)Oc1cc(C)cc(C)c1C(C)(C)CC(=O)O[C@H]1CC[C@H]2[C@@H]3CCC4=CC(=O)CC[C@]4(C)[C@H]3CC[C@]12C [Compound 22, 1,3-Bis(palmitoyloxy)propan-2-yl (2-(4-(((8R,9S,10R,13S,14S,17S)-10,13-dimethyl-3-oxo-2,3,6,7,8,9,10,11,12,13-14,15,16,17-tetradecahydro-1H-cyclopenta[a]phenanthren-17-yl)oxy)-2-methyl-4-oxobutan-2-yl)-3,5-dimethylphenyl) adipate]
[2]
  Tmax: 1.0 ± 0.0 h
  AUC0-24 h: 0.2691 ± 0.0588 µM·h
  Cmax: 171 ± 27 nM

## COCCc1ccc(OCC(O)CNC(C)C)cc1 (stereo not shown) [MET, metoprolol, reference compound]
[1]; [5]
  Increase fold (compared with parent drug group): 1.0 fold
  Transport of total drug derivatives in lymph (% of dose): 0.02 ± 0.01 % of dose

## CCCCCCCCCCCCCCCC(=O)OCC(COC(=O)CCCCCCCCCCCCCCC)OC(=O)CCCCCCCCC(=O)Oc1cc(C)cc(C)c1C(C)(C)CC(=O)NS(=O)(=O)c1ccc(-n2nc(C(F)(F)F)cc2-c2ccc(C)cc2)cc1 [Compound 5]
[1]; [6]
  Transport of total drug derivatives in lymph (% of dose): 15.7 ± 1.3 % of dose

## CCCCCCCCCCCCCCCC(=O)OCC(COC(=O)CCCCCCCCCCCCCCC)OC(=O)CCCCCCCCCCCCCCOC(=O)CC/C(C)=C/Cc1c(O)c2c(c(C)c1OC)COC2=O [Compound 34]
[1]; [3]
  Transport of total MPA derivatives in lymph (% of dose): 22.1 % of dose and 22.1 ± 3.5 % of dose
[1]; anaesthetised, mesenteric lymph-duct cannulated male SD rats, intraduodenal infusion 0-2 h, cumulative over 8 h, listed as compound 34
  Transport of total MPA derivatives in lymph (% of dose): 22.1 % of dose
[1]; [4]
  Fold increase (compared with MPA dosed group): 132.0 fold

## CCCCCCCCCCCCCCCC(=O)OCC(COC(=O)CCCCCCCCCCCCCCC)OC(=O)CCCCCCCCC(=O)Oc1cc(C)cc(C)c1C(C)(C)CC(=O)O[C@H]1CC[C@H]2[C@@H]3CCC4=CC(=O)CC[C@]4(C)[C@H]3CC[C@]12C [Compound 26]
[2]
  Tmax: 1.1 ± 0.1 h
  AUC0-24 h: 0.6173 ± 0.1778 µM·h
  Cmax: 487 ± 134 nM

## CC(=O)Oc1ccccc1C(=O)O [ASP, aspirin, reference compound]
[1]; [5]
  Increase fold (compared with parent drug group): 1.0 fold
  Transport of total drug derivatives in lymph (% of dose): 1.3 ± 0.2 % of dose

## CCCCCCCCCCCCCCCC(=O)OCC(COC(=O)CCCCCCCCCCCCCCC)OC(=O)C(C)CCCCOC(=O)CCC(C)=CCc1c(O)c2c(c(C)c1OC)COC2=O (mixture of isomers) [Compound 37]
[1]; [3]
  Transport of total MPA derivatives in lymph (% of dose): 12.6 % of dose and 12.6 ± 1.7 % of dose
[1]; [4]
  Fold increase (compared with MPA dosed group): 75.0 fold

## CCCCCCCCCCCCCCCC(=O)OCC(COC(=O)CCCCCCCCCCCCCCC)OC(=O)CCCCCCCCCCCCCCCCCCCCOC(=O)CC/C(C)=C/Cc1c(O)c2c(c(C)c1OC)COC2=O [Compound 35]
[1]; [3]
  Transport of total MPA derivatives in lymph (% of dose): 9.7 ± 1.0 % of dose
[1]; [4]
  Fold increase (compared with MPA dosed group): 58.1 fold

## COc1c(C)c2c(c(O)c1C/C=C(\C)CCC(=O)O)C(=O)OC2 [MPA, mycophenolic acid, reference compound]
[1]; [5]
  Fold increase (compared with MPA dosed group): 1.0 fold
  Transport of total MPA derivatives in lymph (% of dose): 0.17 ± 0.05 % of dose

## CCCCCCCCCCCCCCCC(=O)OCC(COC(=O)CCCCCCCCCCCCCCC)OC(=O)CC(C)CCOC(=O)CCC(C)=CCc1c(O)c2c(c(C)c1OC)COC2=O (mixture of isomers) [Compound 38]
[1]; [3]
  Transport of total MPA derivatives in lymph (% of dose): 12.1 % of dose and 12.1 ± 1.0 % of dose
[1]; [4]
  Fold increase (compared with MPA dosed group): 72.3 fold

## CCCCCCCCCCCCCCCC(=O)OCC(COC(=O)CCCCCCCCCCCCCCC)OC(=O)C(C)CCCOC(=O)CCC(C)=CCc1c(O)c2c(c(C)c1OC)COC2=O (mixture of isomers) [Compound 36]
[1]; [3]
  Transport of total MPA derivatives in lymph (% of dose): 9.1 % of dose and 9.1 ± 1.4 % of dose
[1]; [4]
  Fold increase (compared with MPA dosed group): 54.6 fold

## CCCCCCCCCCCCCCCC(=O)OCC(COC(=O)CCCCCCCCCCCCCCC)OC(=O)CCCC(=O)O[C@H]1CC[C@H]2[C@@H]3CCC4=CC(=O)CC[C@]4(C)[C@H]3CC[C@]12C [Compound 10]
[2]; SD female rats, dose-normalized
  AUC0-24 h fold increase compared with TU group: 2.8 fold and 2.9 fold
[2]
  Tmax: 1.0 ± 0.0 h and 1.1 ± 0.1 h
  AUC0-24 h: 0.0191 ± 0.0024 µM·h and 0.0196 ± 0.0008 µM·h
  Cmax: 19 nM and 13.7 nM
[1]; anaesthetised, mesenteric lymph-duct cannulated female SD rats, intraduodenal infusion 0-2 h, cumulative over 8 h
  Transport of total TST derivatives in lymph (% of dose): 14.5 % of dose
[1]; lymphatic transport of total TST derivatives, female SD rats, intraduodenal infusion
  Fold increase (compared with control group dosed with TU): 7.7 fold

## 1-(1,3-Bis(palmitoyloxy)propan-2-yl) 10-(1-(isopropylamino)-3-(4-(2-methoxyethyl)phen-oxy)propan-2-yl) decanedioate [Compound 3]
[1]; [6]
  Transport of total drug derivatives in lymph (% of dose): 14.2 ± 1.5 % of dose
[1]; lymphatic transport of total drug derivatives, male SD rats, intraduodenal infusion
  Increase fold (compared with parent drug group): 591.7 fold

## CN[C@H]1CC[C@@H](c2ccc(Cl)c(Cl)c2)c2ccccc21 [SER, sertraline, reference compound]
[1]; [5]
  Increase fold (compared with parent drug group): 1.0 fold
  Transport of total drug derivatives in lymph (% of dose): 0.05 % of dose

## CCCCCCCCCCCCCCCC(=O)OCC(COC(=O)CCCCCCCCCCCCCCC)OC(=O)CCCCSC(=O)CC/C(C)=C/Cc1c(O)c2c(c(C)c1OC)COC2=O [Compound 40]
[1]; [3]
  Transport of total MPA derivatives in lymph (% of dose): 10.2 ± 3.0 % of dose
[1]; [4]
  Fold increase (compared with MPA dosed group): 61.1 fold
